# According to patent US9708336B2, “Metallo-beta-lactamase inhibitors” (priority 2014, dated 2017):
# pIC50: −log10 of the molar value. Read-outs that look alike come from different tables or passages of the source.
# Key:
# [1] = molecular target: IMP-1 (Serratia marcescens, UniProt P52699); test: biochemical; format: biochemical; settings: read-out: IMP-1 IC50
# [2] = molecular target: NDM-1 (Klebsiella pneumoniae, UniProt C7C422); test: biochemical; format: biochemical; settings: read-out: NDM-1 IC50
# [3] = molecular target: VIM-1 (Pseudomonas aeruginosa (strain ATCC 15692 / DSM 22644 / CIP 104116 / JCM 14847 / LMG 12228 / 1C / PRS 101 / PAO1), UniProt A0A0F7KYQ8); test: Enzyme activity: determination of IC50, fluorescence assay with CCF2-FA substrate (VIM-1); format: biochemical
# [4] = tested on: Escherichia coli expressing NDM-1 (CLB30016); test: Antibiotic potentiation activity: synergistic concentration (MITC95) with imipenem, OD600 growth; format: cell-based; settings: for Escherichia coli expressing NDM-1 (CLB 30016) MITC95: concentration giving 95% inhibition of bacterial growth
# Procedure, shortened: (§1)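 Clinical MBL-producing strains (E. coli NDM-1, S. marcescens IMP-1, K. pneumoniae VIM-1) from overnight plates were diluted 1:100 into 1.1×CAMHB. Compound was tested with imipenem at 4 μg/ml (optionally 1 μg/ml) or without it. After 22–24 h at 35 °C, growth was read as OD600.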
# [5] = tested on: Serratia marcescens expressing IMP-1 (CL5741); test: as above; format: cell-based; settings: for Serratia marcescens expressing IMP-1 (CL5741) MITC95: concentration giving 95% inhibition of bacterial growth
# Procedure, shortened: as §1
# [6] = tested on: Klebsiella pneumoniae expressing VIM-1 (IHMA599644); test: as above; format: cell-based; settings: for Klebsiella pneumoniae expressing VIM-1 (IHMA 599644) MITC95: concentration giving 95% inhibition of bacterial growth
# Procedure, shortened: as §1
# [7] = IMP-1 enzyme, CCF2-FA substrate
# [8] = NDM-1 enzyme, CCF2-FA substrate
# [9] = VIM-1 enzyme, CCF2-FA substrate, read-out: VIM-1 IC50
# [10] = (CLB30016, NDM-1), 95% growth inhibition
# [11] = Serratia marcescens CL5741 (IMP-1), 95% growth inhibition
# [12] = Klebsiella pneumoniae IHMA599644 (VIM-1), 95% growth inhibition
# [13] = fluorescence assay with CCF2-FA substrate
# [14] = VIM-1 IC50, fluorescence assay with CCF2-FA substrate
# [15] = CLB30016 (NDM-1), 95% inhibition of bacterial growth
# [16] = CL5741 (IMP-1), 95% inhibition of bacterial growth
# [17] = IHMA599644 (VIM-1), 95% inhibition of bacterial growth
# [18] = fluorescence assay with CCF2-FA substrate, read-out: VIM-1 IC50
# [19] = VIM-1 IC50, VIM-1 enzyme, CCF2-FA substrate
# [20] = IMP-1 enzyme, CCF2-FA fluorescence assay
# [21] = NDM-1 enzyme, CCF2-FA fluorescence assay
# [22] = VIM-1 enzyme, CCF2-FA fluorescence assay, read-out: VIM-1 IC50
# [23] = Escherichia coli expressing NDM-1 (CLB30016), 95% growth inhibition
# [24] = Serratia marcescens expressing IMP-1 (CL5741), 95% growth inhibition
# [25] = Klebsiella pneumoniae expressing VIM-1 (IHMA599644), 95% growth inhibition
# NDM-1, sequence (C7C422 whole entry, looked up, species assumed): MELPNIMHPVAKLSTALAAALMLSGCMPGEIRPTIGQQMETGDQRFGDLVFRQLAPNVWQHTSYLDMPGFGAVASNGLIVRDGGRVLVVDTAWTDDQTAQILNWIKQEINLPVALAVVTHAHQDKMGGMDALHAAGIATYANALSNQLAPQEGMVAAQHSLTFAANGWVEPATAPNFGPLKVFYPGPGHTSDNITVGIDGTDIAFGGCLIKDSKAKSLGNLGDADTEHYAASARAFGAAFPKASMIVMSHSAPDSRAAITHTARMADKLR
# IMP-1, sequence (P52699 whole entry, looked up): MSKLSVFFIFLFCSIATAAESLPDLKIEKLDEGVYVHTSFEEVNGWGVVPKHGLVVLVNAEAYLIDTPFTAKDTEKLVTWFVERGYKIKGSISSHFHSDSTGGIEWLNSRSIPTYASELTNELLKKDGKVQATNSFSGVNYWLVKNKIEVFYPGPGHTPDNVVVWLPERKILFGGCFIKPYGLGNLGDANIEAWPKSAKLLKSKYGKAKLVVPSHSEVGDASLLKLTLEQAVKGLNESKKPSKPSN
SMILES,"pIC50 [1, 7]","pIC50 [2, 8]","pIC50 [3, 9]","Escherichia coli MITC95 [4, 10] [µM]","Serratia marcescens MITC95 [5, 11] [µM]","Klebsiella pneumoniae MITC95 [6, 12] [µM]","pIC50 [1, 13]","pIC50 [2, 13]",further results
"NS(=O)(=O)c1c(C(F)(F)F)ccc(-c2ccc(C3CCN(CC4CCNCC4)CC3)cc2)c1-c1nnn[nH]1 [Example 668, 4′-[1-(piperidin-4-ylmethyl)piperidin-4-yl]-2-(1H-tetrazol-5-yl)-4-(trifluoromethyl)biphenyl-3-sulfonamide]",8.55,8.03,8.15,1.563,3.125,50,–,–,–
"NS(=O)(=O)c1c(C(F)(F)F)ccc(N2CCC(C3CCNCC3)C2)c1-c1nnn[nH]1 (stereo not drawn) [Example 774, 3-(3-piperidin-4-ylpyrrolidin-1-yl)-2-(1H-tetrazol-5-yl)-6-(trifluoromethyl) benzenesulfonamide]",–,–,–,–,–,–,7.54,7.20,"pIC50 [3, 14]: 8.87; Escherichia coli MITC95 [4, 15]: 25 µM; Serratia marcescens MITC95 [5, 16]: 25 µM; Klebsiella pneumoniae MITC95 [6, 17]: 6.25 µM"
"NCC1CN(C2CCN(c3ccc(C(F)(F)F)c(S(N)(=O)=O)c3-c3nnn[nH]3)CC2)C1 [Example 762, 3-{4-[3-(aminomethyl)azetidin-1-yl]piperidin-1-yl}-2-(1H-tetrazol-5-yl)-6-(trifluoromethyl) benzenesulfonamide]",–,–,–,–,–,–,6.91,7.14,"pIC50 [3, 18]: 7.85; Escherichia coli MITC95 [4, 15]: 3.125 µM; Serratia marcescens MITC95 [5, 16]: 6.25 µM; Klebsiella pneumoniae MITC95 [6, 17]: 6.25 µM"
"CN(CCN1CCCC1)c1ccc(-c2cccc(S(N)(=O)=O)c2-c2nnn[nH]2)cn1 [Example 629, 3-[6-[methyl(2-pyrrolidin-1-ylethyl)amino]-3-pyridyl]-2-(1H-tetrazol-5-yl)benzenesulfonamide]",6.10,7.36,6.17,4.688,25,100,–,–,–
"NS(=O)(=O)c1c(CC[C@H]2CC[C@H](N)CC2)ccc(-c2ccc(C3CCNC3)cc2)c1-c1nnn[nH]1 (stereo partly drawn) [Example 584, 4-(2-((1r,4s)-4-aminocyclohexyl)ethyl)-4′-(pyrrolidin-3-yl)-2-(1H-tetrazol-5-yl)-[1,1′-biphenyl]-3-sulfonamide]",7.99,8.69,8.79,1.563,1.563,6.25,–,–,–
"NC1CCC(N2CC(c3ccc(-c4ccc(C(F)(F)F)c(S(N)(=O)=O)c4-c4nnn[nH]4)cc3)C2)C1 (stereo not drawn) [Example 808, 4′-[1-(3-aminocyclopentyl)azetidin-3-yl]-2-(1H-tetrazol-5-yl)-4-(trifluoromethyl)biphenyl-3-sulfonamide]",–,–,–,–,–,–,8.07,8.45,"pIC50 [3, 18]: 7.60; Escherichia coli MITC95 [4, 15]: 1.563 µM; Serratia marcescens MITC95 [5, 16]: 3.125 µM; Klebsiella pneumoniae MITC95 [6, 17]: 25 µM"
"COc1ccc2cc(-c3cccc(S(N)(=O)=O)c3-c3nnn[nH]3)cnc2n1 [Example 138, 3-(7-methoxy-1,8-naphthyridin-3-yl)-2-(1H-tetrazol-5-yl)benzenesulfonamide]",–,–,–,–,–,–,6.45,8.17,"pIC50 [3, 18]: 6.78; Escherichia coli expressing NDM-1 (CLB 30016) MITC95 [4]: 1.563 µM; Serratia marcescens expressing IMP-1 (CL5741) MITC95 [5]: 37.5 µM; Klebsiella pneumoniae expressing VIM-1 (IHMA 599644) MITC95 [6]: >200 µM"
"NS(=O)(=O)c1c(C(F)(F)F)ccc(-c2ccc(C3CCN(C[C@H]4CCCN4)CC3)cc2)c1-c1nnn[nH]1 [Example 675, 4′-{1-[(2R)-pyrrolidin-2-ylmethyl]piperidin-4-yl}-2-(1H-tetrazol-5-yl)-4-(trifluoromethyl)biphenyl-3-sulfonamide]",8.71,8.34,–,4.688,6.25,150,–,–,"pIC50 [3, 19]: 7.83"
"NC1CCC(N[C@H]2CC[C@H](c3ccc(C(F)(F)F)c(S(N)(=O)=O)c3-c3nnn[nH]3)CC2)C1 (stereo partly drawn) [Example 691, 3-{4-[(3-aminocyclopentyl)amino]cyclohexyl}-2-(1H-tetrazol-5-yl)-6-(trifluoromethyl)benzene sulfonamide]",7.29,7.98,–,0.7813,3.125,3.125,–,–,"pIC50 [3, 19]: 8.21"
"NS(=O)(=O)c1c(C(F)(F)F)ccc(-c2cccc3c2CCNC3)c1-c1nn[nH]n1 [Example 517, 3-(1,2,3,4-Tetrahydroisoquinolin-5-yl)-2-(2H-tetrazol-5-yl)-6-(trifluoromethyl)benzenesulfonamide]",7.43,8.23,9.03,3.125,3.125,1.563,–,–,–
"NS(=O)(=O)c1c(C(F)(F)F)ccc(-c2cccc3c2CCCN3)c1-c1nnn[nH]1 [Example 518, 3-(1,2,3,4-Tetrahydroquinolin-5-yl)-2-(1H-tetrazol-5-yl)-6-(trifluoromethyl)benzenesulfonamide]",8.79,9.11,–,1.563,0.3906,6.25,–,–,"pIC50 [3, 19]: 9.47"
"NS(=O)(=O)c1nccc(N2CCC(O)CC2)c1-c1nnn[nH]1 [Example 242, 4-(4-hydroxypiperidin-1-yl)-3-(1H-tetrazol-5-yl)pyridine-2-sulfonamide]",–,–,–,–,–,–,–,–,"pIC50 [1, 20]: 5.95; pIC50 [2, 21]: 6.99; pIC50 [3, 22]: 6.57; Escherichia coli MITC95 [4, 23]: 0.3906 µM; Serratia marcescens MITC95 [5, 24]: 25 µM; Klebsiella pneumoniae MITC95 [6, 25]: 6.25 µM"
"NC[C@H]1CC[C@H](c2ccc(CCC3CCNCC3)c(S(N)(=O)=O)c2-c2nnn[nH]2)CC1 [Example 591, 3-((1r,4r)-4-(aminomethyl)cyclohexyl)-6-(2-(piperidin-4-yl)ethyl)-2-(1H-tetrazol-5-yl)benzenesulfonamide]",6.49,7.80,6.24,1.563,6.25,25,–,–,–
"NS(=O)(=O)c1cccc(-c2cnn(CCN3CCOCC3)c2)c1-c1nnn[nH]1 [Example 126, 3-(1-(2-morpholinoethyl)-1H-pyrazol-4-yl)-2-(1H-tetrazol-5-yl)benzenesulfonamide]",–,–,–,–,–,–,6.06,6.78,"pIC50 [3, 18]: 4.84; Escherichia coli expressing NDM-1 (CLB 30016) MITC95 [4]: 6.25 µM; Serratia marcescens expressing IMP-1 (CL5741) MITC95 [5]: 25 µM; Klebsiella pneumoniae expressing VIM-1 (IHMA 599644) MITC95 [6]: >200 µM"
"Cc1ccc(-c2ccc(Cl)c(S(N)(=O)=O)c2-c2nn[nH]n2)cc1 [Example 263, 4-chloro-4′-methyl-2-(2H-tetrazol-5-yl)-[1,1′-biphenyl]-3-sulfonamide]",–,–,–,–,–,–,–,–,"pIC50 [1, 20]: 7.68; pIC50 [2, 21]: 8.48; pIC50 [3, 22]: 7.94; Escherichia coli MITC95 [4, 23]: 0.7813 µM; Serratia marcescens MITC95 [5, 24]: 0.7813 µM; Klebsiella pneumoniae MITC95 [6, 25]: 18.75 µM"
"NS(=O)(=O)c1c(C(F)(F)F)ccc(C2CCNc3ccccc32)c1-c1nnn[nH]1 (stereo not drawn) [Example 493, 3-(1,2,3,4-Tetrahydroquinolin-4-yl)-2-(1H-tetrazol-5-yl)-6-(trifluoromethyl)benzenesulfonamide]",8.35,8.77,9.88,1.563,0.3906,3.125,–,–,–
"NS(=O)(=O)c1c(C(F)(F)F)ccc(N2C[C@@H](O)[C@@H](O)C2)c1-c1nnn[nH]1 [Example 757, 3-[(3R,4S)-3,4-dihydroxypyrrolidin-1-yl]-2-(1H-tetrazol-5-yl)-6-(trifluoromethyl) benzenesulfonamide]",–,–,–,–,–,–,6.96,7.08,"pIC50 [3, 14]: 6.45; Escherichia coli MITC95 [4, 15]: 12.5 µM; Serratia marcescens MITC95 [5, 16]: 25 µM; Klebsiella pneumoniae MITC95 [6, 17]: >200 µM"
"NS(=O)(=O)c1c(C(F)(F)F)ccc(N2CCC3(CCNCC3)CC2)c1-c1nnn[nH]1 [Example 783, 3-(3,9-diazaspiro[5.5]undecan-3-yl)-2-(1H-tetrazol-5-yl)-6-(trifluoromethyl) benzenesulfonamide]",–,–,–,–,–,–,7.87,8.31,"pIC50 [3, 18]: 8.72; Escherichia coli MITC95 [4, 15]: 1.172 µM; Serratia marcescens MITC95 [5, 16]: 0.5859 µM; Klebsiella pneumoniae MITC95 [6, 17]: 2.344 µM"
